Measurements: ChEMBL document CHEMBL1201862, “PubChem BioAssay data set” (2004)
“And” between values parts separate entries of the source, which are not always exact repeats. Equal values may be shown once. The source made the active and inactive calls.

Tests used:
[1] = biological target: Alkaline phosphatase, placental type (Homo sapiens, UniProt P05187); assay: PLAP enzyme inhibitors, confirmation, biochemical, luminescence (AID 1512); type: functional
[2] = biological target: T1, Alkaline phosphatase, tissue-nonspecific isozyme (Homo sapiens, UniProt P05186); assay: human TNAP enzyme inhibitors, SAR follow-up, biochemical, luminescent, dose response (AID 1056)
T1 sequence (P05186 whole entry): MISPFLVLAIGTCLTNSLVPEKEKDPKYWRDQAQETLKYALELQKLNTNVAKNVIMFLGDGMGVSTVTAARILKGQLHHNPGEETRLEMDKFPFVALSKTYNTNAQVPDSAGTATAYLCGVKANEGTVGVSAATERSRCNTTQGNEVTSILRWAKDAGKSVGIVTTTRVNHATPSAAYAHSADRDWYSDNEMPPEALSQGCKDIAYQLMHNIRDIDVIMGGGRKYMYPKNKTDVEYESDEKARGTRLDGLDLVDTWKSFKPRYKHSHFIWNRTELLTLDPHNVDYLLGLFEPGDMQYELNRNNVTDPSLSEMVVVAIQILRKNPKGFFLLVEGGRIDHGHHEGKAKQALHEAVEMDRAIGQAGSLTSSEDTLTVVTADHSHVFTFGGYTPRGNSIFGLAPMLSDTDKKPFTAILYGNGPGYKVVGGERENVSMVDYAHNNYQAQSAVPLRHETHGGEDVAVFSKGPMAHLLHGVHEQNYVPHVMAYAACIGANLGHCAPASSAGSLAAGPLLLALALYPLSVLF

[3] = biological target: Glyceraldehyde-3-phosphate dehydrogenase (Homo sapiens, UniProt P04406)
Chain of Glyceraldehyde-3-phosphate dehydrogenase (P04406 whole entry): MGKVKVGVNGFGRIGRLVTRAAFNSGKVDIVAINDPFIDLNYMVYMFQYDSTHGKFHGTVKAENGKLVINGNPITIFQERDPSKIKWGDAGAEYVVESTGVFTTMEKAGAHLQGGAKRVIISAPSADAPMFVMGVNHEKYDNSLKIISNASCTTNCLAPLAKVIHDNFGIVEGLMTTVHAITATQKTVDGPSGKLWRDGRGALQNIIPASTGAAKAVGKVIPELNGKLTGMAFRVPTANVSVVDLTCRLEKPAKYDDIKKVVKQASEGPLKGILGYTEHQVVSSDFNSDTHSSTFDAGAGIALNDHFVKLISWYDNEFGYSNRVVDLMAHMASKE

[4] = biological target: T2, Replicative DNA helicase DnaB (Mycobacterium tuberculosis, UniProt P9WMR3); assay: DnaB intein splicing inhibitors, dose response, biochemical, cell-free fluorescence (AID 449749); type: functional
T2 sequence (P9WMR3 whole entry): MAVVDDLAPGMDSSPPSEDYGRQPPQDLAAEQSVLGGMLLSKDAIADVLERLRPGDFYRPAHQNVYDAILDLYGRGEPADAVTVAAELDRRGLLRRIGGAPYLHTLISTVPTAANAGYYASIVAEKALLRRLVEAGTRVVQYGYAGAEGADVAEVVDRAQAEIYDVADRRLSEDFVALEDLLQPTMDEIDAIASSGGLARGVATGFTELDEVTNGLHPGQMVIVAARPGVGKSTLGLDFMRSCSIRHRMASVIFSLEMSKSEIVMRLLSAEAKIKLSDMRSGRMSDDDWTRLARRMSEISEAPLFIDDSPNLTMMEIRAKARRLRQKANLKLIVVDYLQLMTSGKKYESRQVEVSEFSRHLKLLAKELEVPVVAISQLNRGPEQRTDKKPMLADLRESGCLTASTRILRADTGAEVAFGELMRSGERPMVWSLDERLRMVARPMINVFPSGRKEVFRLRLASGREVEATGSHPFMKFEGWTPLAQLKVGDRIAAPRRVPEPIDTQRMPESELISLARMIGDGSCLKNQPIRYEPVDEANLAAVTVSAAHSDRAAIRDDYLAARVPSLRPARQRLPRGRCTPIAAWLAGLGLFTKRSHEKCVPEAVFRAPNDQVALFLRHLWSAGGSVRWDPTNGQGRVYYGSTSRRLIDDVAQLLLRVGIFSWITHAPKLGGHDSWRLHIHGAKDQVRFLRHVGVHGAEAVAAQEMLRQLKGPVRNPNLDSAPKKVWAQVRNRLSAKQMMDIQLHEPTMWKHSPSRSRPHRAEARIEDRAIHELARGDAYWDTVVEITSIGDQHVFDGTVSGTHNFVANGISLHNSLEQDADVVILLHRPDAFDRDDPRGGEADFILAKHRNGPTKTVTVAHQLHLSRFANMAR

[5] = inhibitors of intracellular T. cruzi replication, confirmation, NIH3T3 host cells, beta-gal luminescence (AID 2044); type: functional, cell-based;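 further: intracellular parasites grown in NIH/3T3 mouse fibroblasts as host cells; luminescent beta-galactosidase reporter signal from transgenic T. cruzi replicating inside host cells; inhibitors lower the luminescence signal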
[6] = biological target: T3, Protein RecA (Mycobacterium tuberculosis, UniProt P9WHJ3); assay: Fluorescence Cell-Free Homogeneous Dose Retest to Identify Inhibitors of RecA-Intein Splicing Activity. [Related pubchem assays (depositor defined):AID2097, AID2223, AID489010, AID492950]; type: functional
T3 sequence (P9WHJ3 whole entry): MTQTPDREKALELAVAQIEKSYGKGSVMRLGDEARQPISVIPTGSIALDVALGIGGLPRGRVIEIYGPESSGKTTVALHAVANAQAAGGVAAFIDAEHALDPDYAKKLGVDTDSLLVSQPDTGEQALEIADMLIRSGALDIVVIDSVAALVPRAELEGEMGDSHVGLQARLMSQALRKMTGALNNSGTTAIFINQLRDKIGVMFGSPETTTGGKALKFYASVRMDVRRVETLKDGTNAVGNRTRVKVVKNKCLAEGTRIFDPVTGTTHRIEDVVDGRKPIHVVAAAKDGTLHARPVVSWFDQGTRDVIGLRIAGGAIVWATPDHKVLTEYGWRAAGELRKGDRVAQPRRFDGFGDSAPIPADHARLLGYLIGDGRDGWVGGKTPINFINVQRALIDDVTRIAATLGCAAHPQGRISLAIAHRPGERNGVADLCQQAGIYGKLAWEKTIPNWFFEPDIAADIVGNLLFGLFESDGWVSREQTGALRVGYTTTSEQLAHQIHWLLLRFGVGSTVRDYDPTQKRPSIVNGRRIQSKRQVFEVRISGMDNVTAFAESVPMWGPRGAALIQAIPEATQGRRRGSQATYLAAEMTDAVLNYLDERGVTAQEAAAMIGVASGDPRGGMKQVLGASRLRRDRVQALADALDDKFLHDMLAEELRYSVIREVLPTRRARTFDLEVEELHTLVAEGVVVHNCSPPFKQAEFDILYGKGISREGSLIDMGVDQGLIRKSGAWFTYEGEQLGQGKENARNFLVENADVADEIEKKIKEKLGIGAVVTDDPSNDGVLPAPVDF

[7] = cytotoxicity toward NIH3T3 fibroblasts, dose response, counter-screen, cell-based, ATP luminescence, mouse fibroblasts (AID 2010); type: functional;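 further: cells exposed to compound for about 90 hours before reading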
[8] = Intein inhibitors as potential Tuberculosis drugs, a cytotoxicity screen. [Related pubchem assays (depositor defined):AID2221, AID2223, AID434968, AID435010, AID449749, AID449750, AID489010]; type: functional
[9] = biological target: T4, Calpain-2 catalytic subunit (Sus scrofa, UniProt P43367); assay: pig calpain II inhibitor potency, dose response, biochemical, fluorogenic peptide substrate (AID 1420); type: functional
T4 sequence (P43367 whole entry): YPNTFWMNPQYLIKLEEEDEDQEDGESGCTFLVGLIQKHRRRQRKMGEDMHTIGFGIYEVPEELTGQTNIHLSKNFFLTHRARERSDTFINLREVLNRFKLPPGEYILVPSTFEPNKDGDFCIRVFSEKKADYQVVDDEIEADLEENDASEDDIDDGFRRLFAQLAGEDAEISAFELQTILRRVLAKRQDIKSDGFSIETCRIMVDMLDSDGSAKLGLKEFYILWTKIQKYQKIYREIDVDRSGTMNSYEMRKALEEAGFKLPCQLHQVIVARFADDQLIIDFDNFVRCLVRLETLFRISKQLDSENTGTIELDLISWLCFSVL
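Wherever CC50 is given: cells exposed to compound for 72 hours before luminescence readout.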

Chain of Alkaline phosphatase, placental type (P05187 whole entry): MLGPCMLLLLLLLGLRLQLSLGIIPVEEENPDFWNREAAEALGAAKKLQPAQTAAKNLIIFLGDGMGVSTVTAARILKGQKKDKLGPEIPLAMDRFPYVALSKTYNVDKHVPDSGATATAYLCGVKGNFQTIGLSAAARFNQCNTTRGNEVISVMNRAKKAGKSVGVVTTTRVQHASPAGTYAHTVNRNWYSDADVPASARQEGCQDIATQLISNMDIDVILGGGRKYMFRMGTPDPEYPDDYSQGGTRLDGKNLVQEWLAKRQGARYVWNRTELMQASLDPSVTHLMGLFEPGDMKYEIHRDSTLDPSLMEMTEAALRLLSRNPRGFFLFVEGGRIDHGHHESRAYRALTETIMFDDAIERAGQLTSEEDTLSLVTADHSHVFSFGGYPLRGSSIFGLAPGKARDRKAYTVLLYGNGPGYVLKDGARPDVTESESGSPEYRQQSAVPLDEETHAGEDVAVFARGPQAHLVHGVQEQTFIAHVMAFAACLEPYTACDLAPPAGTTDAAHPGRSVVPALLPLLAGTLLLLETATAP

| Compound | IC50 [1] | IC50 [2] | IC50 [3] | AC50 [4] | EC50 [5] | EC50 [6] | EC50 [7] | CC50 [8] | IC50 [9] |
| --- | --- | --- | --- | --- | --- | --- | --- | --- | --- |
| Oc1ccccc1-c1n[nH]c(-c2ccccc2O)n1 | > 100 µM (inactive) | > 100 µM (inactive) | > 100 µM (not active) |  |  |  |  |  |  |
| O=C1C2CC=CCC2C(=O)N1c1nnc(Cc2ccccc2)[nH]1 (configuration not stated) | 2.04 µM (active) and 3.25 µM (active) | 169 nM (active) and 126 nM (active) and 172 nM (active) | > 100 µM (not active) |  |  |  |  |  |  |
| CC(C)(C)C1CCc2sc(C(=O)NNC(=O)CCl)cc2C1 (configuration not stated) |  |  |  | 4.29 µM (active) | 1.75 µM (active) | 1.47 µM (active) | > 60 µM (inconclusive) | 3.58 µM (active) | 3.86 µM (active) |
